Measurements published in publication PMC10867458, “Depolymerization of actin filaments by Cucurbitacin I through binding G‐actin” (Food Science & Nutrition, 2023).
Like-named read-outs stand apart in the source and are kept apart here.

Experiments:
[1] = target: T1, G-actin (rabbit skeletal muscle actin) (Oryctolagus cuniculus, UniProt P68135); assay: differential scanning fluorimetry (SYPRO orange) with Kd; also pyrene-actin polymerization inhibition; type: binding
T1 construct: gene ACTA1

[2] = target: T1, G-actin (rabbit skeletal muscle actin); assay: pyrene-actin polymerization assay, […] (V50 […] vs control […]); type: biochemical
[3] = target: T1, G-actin (rabbit skeletal muscle actin); assay: as above; type: biochemical; remark: listed apart in the source

## CC(C)(O)/C=C/C(=O)[C@](C)(O)[C@H]1[C@H](O)C[C@@]2(C)[C@@H]3CC=C4[C@@H](C=C(O)C(=O)C4(C)C)[C@]3(C)C(=O)C[C@]12C [CuI, Cucurbitacin I]
[1]
  Kd: 30 ± 2.5 nM

## C=C1[C@@H](C)[C@H]2[C@H](Cc3ccccc3)NC(=O)[C@]23[C@H](OC(C)=O)/C=C/[C@@](C)(O)C(=O)[C@@H](C)C/C=C/[C@H]3[C@@H]1O [Cytochalasin D]
[2]
  V 50: 77.59 ± 7776

## C/C1=C\[C@H](C)C[C@H](C)OC(=O)C[C@H](c2ccc(O)cc2)NC(=O)[C@@H](Cc2c(Br)[nH]c3ccccc23)N(C)C(=O)[C@H](C)NC(=O)[C@@H](C)C1 [Jasplakinolide]
[3]
  V 50: 54.7 ± 5114
